Data as given in patent US20120100990A1, “4 -AMINOPICOLINATES AND THEIR USE AS HERBICIDES” (SYNGENTA CROP PROTECTION LLC, priority 2009, published 2012).

Legend:
Format in all cases: in vivo
[1] = tested on: Alopecurus myosuroides (ALOMY); assay: Pre-emergence biological efficacy, glasshouse pot test; conditions: 312 h, 1,000 g/ha, evaluated after 13 days, 100=total damage, 0=no damage, read-out: Percentage damage caused to weed species, pre-emergence, ALOMY
Experimental: (§1) Seeds of Alopecurus myosuroides (ALOMY), Setaria faberi (SETFA), Echinochloa crus-galli (ECHCG), Solanum nigrum (SOLNI), Amaranthus retroflexus (AMARE) and Ipomea hederaceae (IPOHE) were sown in standard soil in pots. After cultivation for one day under controlled conditions in a glasshouse (at 24/16° C., day/night; 14 hours light; 65% humidity), the plants were sprayed with an aqueous spray solution derived from the formulation of the technical active ingredient in acetone/water (50:50) solution containing 0.5% Tween 20 (polyoxyethylene sorbitan monolaurate, CAS RN 9005-64-5) to give a final dose of 1000 or 250 g/ha of test compound. The test plants were then grown under controlled conditions in the glasshouse (at 24/16° C., day/night; 14 hours light; 65% humidity) and watered twice daily. After 13 days the test was evaluated (100=total damage to plant; 0=no damage to plant).

[2] = tested on: Amaranthus retroflexus (AMARE); assay: as above; conditions: 312 h, 1,000 g/ha, evaluated after 13 days, 100=total damage, 0=no damage, read-out: Percentage damage caused to weed species, pre-emergence, AMARE
Experimental: as §1

[3] = tested on: Echinochloa crus-galli (ECHCG); assay: as above; conditions: 312 h, 1,000 g/ha, evaluated after 13 days, 100=total damage, 0=no damage, read-out: Percentage damage caused to weed species, pre-emergence, ECHCG
Experimental: as §1

[4] = tested on: Ipomea hederaceae (IPOHE); assay: as above; conditions: Ipomoea hederacea, 312 h, 1,000 g/ha, evaluated after 13 days, 100=total damage, 0=no damage, read-out: Percentage damage caused to weed species, pre-emergence, IPOHE
Experimental: as §1

Setaria faberi (SETFA) [5] = assay: as above; conditions: 312 h, 1,000 g/ha, evaluated after 13 days, 100=total damage, 0=no damage, read-out: Percentage damage caused to weed species, pre-emergence, SETFA
Experimental: as §1

Solanum nigrum (SOLNI) [6] = assay: as above; conditions: 312 h, 1,000 g/ha, evaluated after 13 days, 100=total damage, 0=no damage, read-out: Percentage damage caused to weed species, pre-emergence, SOLNI
Experimental: as §1

[7] = tested on: Alopecurus myosuroides (ALOMY); assay: Post-emergence biological efficacy, glasshouse pot test; conditions: 312 h, 1,000 g/ha, evaluated after 13 days, 100=total damage, 0=no damage, read-out: Percentage damage caused to weed species, post-emergence, ALOMY
Experimental: as §1, with “for 8 days” for “for one day”, “grown on” for “grown”, “in a” for “in the”

[8] = tested on: Amaranthus retroflexus (AMARE); assay: as above; conditions: 312 h, 1,000 g/ha, evaluated after 13 days, 100=total damage, 0=no damage, read-out: Percentage damage caused to weed species, post-emergence, AMARE
Experimental: as §1, with “for 8 days” for “for one day”, “grown on” for “grown”, “in a” for “in the”

[9] = tested on: Echinochloa crus-galli (ECHCG); assay: as above; conditions: 312 h, 1,000 g/ha, evaluated after 13 days, 100=total damage, 0=no damage, read-out: Percentage damage caused to weed species, post-emergence, ECHCG
Experimental: as §1, with “for 8 days” for “for one day”, “grown on” for “grown”, “in a” for “in the”

[10] = tested on: Ipomea hederaceae (IPOHE); assay: as above; conditions: Ipomoea hederacea, 312 h, 1,000 g/ha, evaluated after 13 days, 100=total damage, 0=no damage, read-out: Percentage damage caused to weed species, post-emergence, IPOHE
Experimental: as §1, with “for 8 days” for “for one day”, “grown on” for “grown”, “in a” for “in the”

Setaria faberi (SETFA) [11] = assay: as above; conditions: 312 h, 1,000 g/ha, evaluated after 13 days, 100=total damage, 0=no damage, read-out: Percentage damage caused to weed species, post-emergence, SETFA
Experimental: as §1, with “for 8 days” for “for one day”, “grown on” for “grown”, “in a” for “in the”

Solanum nigrum (SOLNI) [12] = assay: as above; conditions: 312 h, 1,000 g/ha, evaluated after 13 days, 100=total damage, 0=no damage, read-out: Percentage damage caused to weed species, post-emergence, SOLNI
Experimental: as §1, with “for 8 days” for “for one day”, “grown on” for “grown”, “in a” for “in the”

Structure (SMILES) | pest or weed control at 1000 g/ha [1] [%] | pest or weed control at 1000 g/ha [2] [%] | pest or weed control at 1000 g/ha [3] [%] | pest or weed control at 1000 g/ha [4] [%] | pest or weed control at 1000 g/ha (Setaria faberi (SETFA) [5]) [%] | pest or weed control at 1000 g/ha (Solanum nigrum (SOLNI) [6]) [%] | pest or weed control at 1000 g/ha [7] [%] | pest or weed control at 1000 g/ha [8] [%] | pest or weed control at 1000 g/ha [9] [%] | pest or weed control at 1000 g/ha [10] [%] | pest or weed control at 1000 g/ha (Setaria faberi (SETFA) [11]) [%] | pest or weed control at 1000 g/ha (Solanum nigrum (SOLNI) [12]) [%]
C=Cc1c(NCc2ncccc2C)cc(Cl)nc1C(=O)OC [Compound 33-12, 6-Chloro-3-ethenyl-4-[(3-methyl-pyridin-2-ylmethyl)-amino]-pyridine-2-carboxylic acid methyl ester] | 70 | 100 | 80 | 100 | 80 | 100 | 80 | 100 | 80 | 70 | 90 | 90
COC(=O)c1nc(Cl)cc(NCc2cccc(F)c2)c1Cl [Compound 7-2, 3,6-Dichloro-4-[(3-fluorophenylmethyl)-amino]-pyridine-2-carboxylic acid methyl ester] | 50 | 100 | 50 | 100 | 80 | 100 | 50 | 100 | 50 | 80 | 90 | 100
COC(=O)c1nc(Cl)cc(NCc2ccc3c(c2)OCO3)c1Cl [Compound 24-2, 3,6-Dichloro-4-[(3,4-methylenedioxy-phenylmethyl)-amino]-pyridine-2-carboxylic acid methyl ester] | 10 | 100 | 0 | 80 | 70 | 100 | 50 | 100 | 20 | 70 | 80 | 100
COC(=O)c1nc(Cl)cc(NCc2ncccc2C)c1Cl [Compound 33-2, 3,6-Dichloro-4-[(3-methyl-pyridin-2-ylmethyl)-amino] pyridine-2-carboxylic acid methyl ester] | 60 | 100 | 50 | 100 | 80 | 100 | 60 | 100 | 60 | 80 | 70 | 100
COC(=O)c1nc(Cl)cc(NCc2ccco2)c1C [Compound 26-19, 6-chloro-4-[(furan-2-ylmethyl)-amino]-3-methyl-pyridine-2-carboxylic acid methyl ester] | 70 | 100 | 0 | 40 | 70 | 100 | 60 | 100 | 30 | 40 | 70 | 90
COC(=O)c1nc(Cl)cc(NCc2ccccc2C(F)(F)F)c1Cl [Compound 74-2, 3,6-Dichloro-4-[(2-trifluoromethyl-phenylmethyl)-amino]-pyridine-2-carboxylic acid methyl ester] | 0 | 90 | 0 | 70 | 10 | 90 | 10 | 100 | 0 | 60 | 0 | 100
CCO/C=C\c1c(NCc2ccco2)cc(-c2ccc(Cl)c(OC)c2F)nc1C(=O)OC [Compound 26-463, (Z)-6-(4-chloro-2-fluoro-3-methoxy-phenyl)-3-(2-ethoxyethenyl)-4-[(furan-2-ylmethyl)-amino]-pyridine-2-carboxylic acid methyl ester] | 10 | 0 | 10 | 0 | 10 | 10 | 0 | 20 | 0 | 40 | 0 | 60
C=Cc1c(NCc2ccco2)cc(-c2ccc(Cl)c(OC)c2F)nc1C(=O)OC [Compound 26-174, 6-(4-chloro-2-fluoro-3-methoxy-phenyl)-3-ethenyl-4-[(furan-2-ylmethyl)-amino]-pyridine-2-carboxylic acid methyl ester] | 20 | 80 | 30 | 90 | 10 | 90 | 10 | 100 | 20 | 50 | 0 | 100
COC(=O)c1nc(Cl)cc(NCc2ccncc2)c1Cl [Compound 80-2, 3,6-Dichloro-4-(pyridin-4-ylmethylamino)-pyridine-2-carboxylic acid methyl ester] | 70 | 100 | 20 | 90 | 80 | 100 | 40 | 90 | 60 | 70 | 50 | 100
C=Cc1c(NCC2CCCCC2)cc(Cl)nc1C(=O)OC [Compound 67-12, 6-Chloro-4-cyclohexylmeth-ylamino-3-ethenyl-pyridine-2-carboxylic acid methyl ester] | 10 | 100 | 10 | 60 | 0 | 80 | 10 | 90 | 20 | 60 | 20 | 80
